Measurements from article PMC4769088, “Antifungal Activity and Action Mechanism of Histatin 5-Halocidin Hybrid Peptides against Candida ssp” (PLoS ONE, 2016).
Read-outs that look alike come from different tables or passages of the source. Where a SMILES comes first, the peptide text is derived from it. Bridges are numbered along the chain shown (N, C = ends). Roman numbers before positions name the chains, in order. Where no end group is shown, it is not given here.

How the values were obtained:
[1] = system: C. albicans strains; assay: Broth dilution assay (MIC), C. albicans strains; format: cell-based, Candida albicans
Protocol: (§1) To determine the candidacidal activity of the peptides, we used Candida strains obtained from the Culture collection of antimicrobial resistant microbes at Seoul Women’s University in Korea. These included three Candida albicans (CCARM 14020, 14021, 14022), Candida guillermondi and Candida tropicalis. In addition, Candida albicans SC5413 was kindly provided by Dr Jeong-Yoon Kim at the Department of Microbiology & Molecular Biology, Chungnam University, Korea. Yeast were cultured overnight at 30°C in 10 ml of yeast extract-peptone-dextrose (YPD) broth (Qbiogene), then diluted in 10 ml of YPD broth to OD600 = 0.2 and grown for an additional 4 h with shaking at 30°C until OD600 = 0.8 in order to obtain mid-log phase cultures. The peptides (Hst 5, P113, HHP1, HHP2, PH1, PH2, di-PH1, di-PH2, WP1, di-WP2, di-15Hc and di-18Hc) in this study were synthesized by using standard solid-phase synthesis protocols and were purified by reversed-phase high-performance liquid chromatography at Anygen Inc. (Korea). FITC-labeled peptides (F-Hst5, F-P113, F-HHP1, F-di-PH2, F-di-WP2 and F-di-18Hc) were also synthesized by 6-aminohexnoic acid linker at Anygen (Korea) for confocal experiments.
(§2) The candidacidal activities of the peptides were tested by using standard microdilution plate assays, radial diffusion assays and broth dilution assay slightly modified from the procedure recommended by the National Committee for Clinical Laboratory Standards. For the candidacidal assays, C. albicans cells were grown in YPD medium and washed twice with 10 mM sodium phosphate buffer (NaPB; Na2HPO4, NaH2PO4, pH 7.4). The cells (1 x 10^6) were then mixed with different concentrations of peptides and incubated at 30°C with constant shaking for 60 min. For energy depletion experiments, cells were pre-incubated with 10 mM NaPB containing 5 mM NaN3 at 30°C for 60 min before the addition of peptides. The cell suspensions were diluted in 10 mM NaPB and aliquots of 500 cells were spread onto YPD agar plates then incubated for 24 h at 30°C to visualize the surviving colonies. Cell survival was expressed as a percentage of that for the control, and the loss of viability was calculated as [1 x (number of colonies from peptide-treated cells/number of colonies from control cells)] x 100. Candidacidal assays were performed in triplicate. For the radial diffusion assay, C. albicans cells were grown in YPD medium overnight and washed twice with 10 mM NaPB. Washed yeast-phase C. albicans cells (1 x 10^6 CFU) were trapped in thin underlay gels containing 9 mM sodium phosphate, 1 mM sodium citrate buffer, 1% (wt/vol) agarose (A6013; Sigma), and 0.3 mg of Sabouraud dextrose broth (Difco)/ml. After incubation at 37°C for 3 h, a 10 ml overlay gel of 1% agarose and 6% Sabouraud dextrose broth was poured on the underlay gel and then the plates were incubated overnight at 37°C. The clear-zone diameters were measured to the nearest 0.1 mm and graphed against the peptide concentration. Zone diameters were expressed in units (0.1 mm = 1 unit). For the broth dilution assay, the Candida strains were cultured in LYM broth for 18 h at 30°C. The numbers of yeasts were counted using a hemocytometer. Stock peptide solutions were prepared to a concentration of 320 μg/ml in distilled water, and were then serially diluted twofold, to 5 μg/ml. […] The antifungal activities were evaluated after 24 h of incubation at 30°C by the observation of visible turbidity the wells. […]

[2] = system: C. tropicalis; assay: Broth dilution assay (MIC); format: cell-based, Candida tropicalis; conditions: 150 mM NaCl
Protocol: as §1
as §2, with “Washed yeast-phase C. albicans cells (1 x 10^6 CFU) were trapped in thin underlay gels containing 9 mM sodium phosphate, 1 mM sodium citrate buffer, 1% (wt/vol) agarose (A6013; Sigma), and 0.3 mg of Sabouraud dextrose broth (Difco)/ml. After incubation at 37°C for 3 h, a 10 ml overlay gel of 1% agarose and 6% Sabouraud dextrose broth was poured on the underlay gel and then the plates were incubated overnight at 37°C.” left out, “Zone diameters were expressed in units (0.1 mm = 1 unit). For the broth dilution assay, the Candida strains were cultured in LYM broth for 18 h at 30°C.” left out, “hemocytometer.” for “hemocytometer. Stock peptide solutions were prepared to a concentration of 320 μg/ml in distilled water, and were then serially diluted twofold, to 5 μg/ml.”

[3] = CD spectra, secondary structure analysis; format: physicochemical; conditions: 200 μg/ml peptide
Protocol: Circular dichroism (CD) spectra of the six peptides (Hst5, P113, HHP1, di-PH2, di-WP2 and di-18Hc) were measured with a J-715 spectropolarimeter (Jasco, Tokyo, Japan). Two hundred micrograms of each peptide was resuspended in 1 ml of 10 mM NaPB (pH 7.0) (i) without other additives, (ii) with 10% laminarin (LAM) or (iii) with 50% trifluoroethanol (TFE) (a known helix-inducing solvent). The spectra were measured at room temperature in a 1-mm-path-length quartz cell. The scanning speed was 10 nm/min (180 to 260 nm), and each spectrum was the average of five scans.
Fig 3 CD spectra of Hst5, P113, di-18Hc and hybrid peptides. This study was performed with one concentration (200 μg/ml) of each peptide in various buffers: 10 mM sodium phosphate buffer (Red line), 50% TFE in phosphate buffer (green line) and 20 mg of laminarin in phosphate buffer.

[4] = system: Candida cells; assay: ROS production (DCFH-DA fluorometric assay); format: cell-based, Candida albicans; conditions: 32 μg/ml peptide, 120 min, 10 μM DCFH-DA, ex 485 / em 530 nm
Protocol: The amount of ROS produced by Candida cells treated with peptides was measured by a fluorometric assay with DCFHDA as described earlier. Briefly, the cells were adjusted to an OD600 of 1 in 10 ml of NaPB and centrifuged at 5000 ×g for 10 min. The cell pellet was then resuspended in NaPB and treated with peptides alone or with ascorbic acid. After the addition of 10 μM 2`,7`dichlorofluorescein diacetate (DCFH-DA), the fluorescence intensity of the induced ROS production was recorded every 10 min at excitation and emission wavelengths of 485 nm and 530 nm, respectively, in a Perkin Elmer 2030 Reader (Victor X3).  Fig 7 The effect of peptides on ROS generation. Time-dependency of DCF fluorescence as a measure of ROS generation (A) and killing activity (B) were determined in Candida cells treated with peptides (32 μg/ml) or peptides + Ascorbic acid (200 μg/ml) by Perkin Elmer 2030 reader (VictorX 3) and colony count assay, respectively. The fluorescence obtained with the cells treated with 10 mM of H2O2 served as positive control and the cells without peptide served as negative control. The fluorescent intensity of DCF was recorded every 10 min for 120 min at excitation and emission wavelengths of 485 and 530 nm, respectively.

[5] = system: C.albicans CCARM 14021; format: cell-based, Candida albicans
Protocol: as §1
The candidacidal activities of the peptides were tested by using standard microdilution plate assays, radial diffusion assays and broth dilution assay slightly modified from the procedure recommended by the National Committee for Clinical Laboratory Standards. For the candidacidal assays, C. albicans cells were grown in YPD medium and washed twice with 10 mM sodium phosphate buffer (NaPB; Na2HPO4, NaH2PO4, pH 7.4). The cells (1 x 10^6) were then mixed with different concentrations of peptides and incubated at 30°C with constant shaking for 60 min. For energy depletion experiments, cells were pre-incubated with 10 mM NaPB containing 5 mM NaN3 at 30°C for 60 min before the addition of peptides. The cell suspensions were diluted in 10 mM NaPB and aliquots of 500 cells were spread onto YPD agar plates then incubated for 24 h at 30°C to visualize the surviving colonies. Cell survival was expressed as a percentage of that for the control, and the loss of viability was calculated as [1 x (number of colonies from peptide-treated cells/number of colonies from control cells)] x 100. Candidacidal assays were performed in triplicate. For the radial diffusion assay, C. albicans cells were grown in YPD medium overnight and washed twice with 10 mM NaPB. Washed yeast-phase C. albicans cells (1 x 10^6 CFU) were trapped in thin underlay gels containing 9 mM sodium phosphate, 1 mM sodium citrate buffer, 1% (wt/vol) agarose (A6013; Sigma), and 0.3 mg of Sabouraud dextrose broth (Difco)/ml. After incubation at 37°C for 3 h, a 10 ml overlay gel of 1% agarose and 6% Sabouraud dextrose broth was poured on the underlay gel and then the plates were incubated overnight at 37°C. The clear-zone diameters were measured to the nearest 0.1 mm and graphed against the peptide concentration. Zone diameters were expressed in units (0.1 mm = 1 unit). For the broth dilution assay, the Candida strains were cultured in LYM broth for 18 h at 30°C. The numbers of yeasts were counted using a hemocytometer. Stock peptide solutions were prepared to a concentration of 320 μg/ml in distilled water, and were then serially diluted twofold, to 5 μg/ml. 100 μl aliquots of the diluted culture media containing candida cells (1 x 10^3) were dispensed into the wells of 96-well polypropylene microtiter plates (Costar 3879, Corning, NY), to which peptide solution (11 μl) was then added. In the experiments conducted to assess the candidacidal activity of peptides in the presence of salt, we used LYM supplemented with 150 mM NaCl for the culture medium, which was mixed with the peptide solution. The antifungal activities were evaluated after 24 h of incubation at 30°C by the observation of visible turbidity the wells. […]

[6] = solvent 10mM NaPB (pH 7.0), room temperature, average of five scans

With `CC(C)C[C@H](NC(=O)[C@@H](N)Cc1c[nH]c2ccccc12)C(=O)N[C@@H](CC(N)=O)C(=O)N[C@@H](C)C(=O)N[C@@H](CCCCN)C(=O)N[C@@H](CCCNC(=N)N)C(=O)N[C@@H](Cc1c[nH]cn1)C(=O)N[C@@H](Cc1c[nH]cn1)C(=O)NCC(=O)N[C@@H](Cc1ccc(O)cc1)C(=O)N[C@@H](CCCCN)C(=O)N[C@@H](CSSC[C@H](NC(=O)[C@H](CCCCN)NC(=O)[C@H](Cc1ccc(O)cc1)NC(=O)CNC(=O)[C@H](Cc1c[nH]cn1)NC(=O)[C@H](Cc1c[nH]cn1)NC(=O)[C@H](CCCNC(=N)N)NC(=O)[C@H](CCCCN)NC(=O)[C@H](C)NC(=O)[C@H](CC(N)=O)NC(=O)[C@H](CC(C)C)NC(=O)[C@@H](N)Cc1c[nH]c2ccccc12)C(=O)N[C@@H](CCCCN)C(=O)N[C@@H](Cc1ccccc1)C(=O)N[C@@H](Cc1c[nH]cn1)C(N)=O)C(=O)N[C@@H](CCCCN)C(=O)N[C@@H](Cc1ccccc1)C(=O)N[C@@H](Cc1c[nH]cn1)C(N)=O` [di-WP2] (I: H-WLNAKRHHGYKCKFH-NH2 / II: H-WLNAKRHHGYKCKFH-NH2; disulfide I:12-II:12 (inferred); N-terminus assumed) as the molecule, how does the “decrease of killing activities in 150 mM salt” value ([1]; 150 mM NaCl versus no salt, C. albicans strains) read?
Its value is 4-8 fold.

What about the “killing activities against C. tropicalis in 150 mM NaCl salt” value [2] of the same molecule?
Its value is “retained”.

And the “Secondary structure (%) Beta” value ([3]; solvent 10mM NaPB (pH 7.0))?
Its value is 22.0%.

What about the “Secondary structure (%) Random” value ([3]; solvent 10mM NaPB (pH 7.0)) of the same molecule?
The value was 63.2%.

What about the “Secondary structure (%) Turn” value ([3]; solvent 10mM NaPB (pH 7.0)) of the same molecule?
Its value is 14.8%.

What about the “Secondary structure (%) Helix” value [3, 6] of the same molecule?
Its value is 0.0%.

What about the “Secondary structure (%) Beta” value ([3]; solvent 50% TFE in 10 mM NaPB) of the same molecule?
The value was 25.7%.

What about the “Secondary structure (%) Helix” value ([3]; solvent 50% TFE in 10 mM NaPB) of the same molecule?
Its value is 7.8%.

And the “Secondary structure (%) Random” value ([3]; solvent 50% TFE in 10 mM NaPB)?
The value was 52.5%.

And the “Secondary structure (%) Turn” value ([3]; solvent 50% TFE in 10 mM NaPB)?
The value was 13.9%.

And the “DCF fluorescence intensity (ROS generation)” value [4]?
Its value is “little fluorescence”.

Which “killing activities against C. albicans strains in 150 mM salt” value ([1]; 150 mM NaCl) does the source give for AKRHHGYKRKFH-NH2 [P113] here?
Its value is “abolished”.

And the “Secondary structure (%) Beta” value ([3]; solvent 10mM NaPB (pH 7.0))?
The value was 0.0%.

What about the “Secondary structure (%) Random” value ([3]; solvent 10mM NaPB (pH 7.0)) of the same molecule?
The value was 95.3%.

And the “Secondary structure (%) Turn” value ([3]; solvent 10mM NaPB (pH 7.0))?
Its value is 4.7%.

What about the “Secondary structure (%) Helix” value [3, 6] of the same molecule?
Its value is 0.0%.

What about the “Secondary structure (%) Beta” value ([3]; solvent 50% TFE in 10 mM NaPB) of the same molecule?
The value was 34.8%.

What about the “Secondary structure (%) Helix” value ([3]; solvent 50% TFE in 10 mM NaPB) of the same molecule?
The value was 4.4%.

And the “Secondary structure (%) Random” value ([3]; solvent 50% TFE in 10 mM NaPB)?
The value was 60.8%.

What about the “Secondary structure (%) Turn” value ([3]; solvent 50% TFE in 10 mM NaPB) of the same molecule?
Its value is 0.0%.

What about the MICs ([5]; CCARM 14021, 24 h) of the same molecule?
The MICs was 4 to 8 µg/mL.

And the MICs ([5]; NaCl 150 mM, LYM supplemented with 150 mM NaCl, 24 h at 30°C)?
The MICs was 32< μg/ml.

What about the “DCF fluorescence intensity (ROS generation)” value [4] of the same molecule?
Its value is “constant increase in fluorescence intensity”.
